# Reference: PMC11024016 (Pharmaceutical Research, 2024)
# Assays:
# [1] = Pharmacokinetics of unencapsulated topotecan in plasma, tumor and BM-ISF of ES-2 tumor bearing mice; assay type: in vivo, BALB/c nude mice; conditions: for AUC(0-inf) / Cmax / MRT / half-life: BALB/c nude, mouse, iv
# Description: (§1) Sucrose/histidine buffer and saline (Otsuka Pharmaceutical Factory, Tokushima, Japan) were used as the diluent for FF-10850 and TPT, respectively. After blood sample collection, mice were euthanized at the corresponding time points, and tumor and bone marrow tissues were collected. Plasma was obtained by centrifuging the blood samples at 800 × g for 15 min at 4 °C. Tumor tissues, placed on ice, were minced into fine pieces with scissors. Bone marrow tissues were harvested from the femur and tibia. After cutting the ends, the bones were placed in a microtube and centrifuged at 1,200 × g for 1 min at 4 °C. Unencapsulated topotecan was immediately separated from the plasma and tissue samples and processed.
# For the separation of unencapsulated topotecan in plasma, plasma samples diluted with PBS were ultracentrifuged at 200,000 × g for 1 h at 4 °C to precipitate the liposomes. The supernatants were collected as samples for measuring unencapsulated topotecan in plasma. To separate unencapsulated topotecan in tumor tissues, the tissues were minced as described and homogenized in PBS containing topotecan-d6 as an internal standard (125 mg tissue/mL PBS), with zirconia balls using Micro Smash MS-100R (Tomy Seiko, Tokyo, Japan). The homogenate was then ultracentrifuged at 200,000 × g for 1 h at 4 °C, and the supernatants were collected as samples for measuring unencapsulated topotecan in the tumor tissue. For the separation of unencapsulated topotecan in BM-ISF, a bone marrow tissue suspension was prepared by adding PBS containing topoteacan-d6 to the tissue (25 mg tissue/mL PBS) and suspending it by pipetting. After removing cellular components from the suspension by centrifugation at 1,200 × g for 3 min at 4 °C, the supernatant was collected as the BM-ISF sample. These samples were ultracentrifuged at 200,000 × g for 1 h at 4 °C, and the supernatants were collected to measure unencapsulated topotecan in the BM-ISF.
# (§2) To prepare the samples, methanol with 0.1% formic acid plus topotecan-d6 was added to plasma samples, while methanol with 0.1% formic acid was used for tumor and BM-ISF samples. The samples were thoroughly mixed and centrifuged at 11,300 × g for 3 min. The supernatants were added to an equal volume of water with 0.1% formic acid, and the mixture was injected into the liquid chromatographic–triple quadrupole mass spectrometric (LC–MS/MS) system. The ultra-performance liquid chromatography (UPLC) conditions for topotecan analysis were as follows: system, ACQUITY UPLC (Waters, Milford, MA); column, ACQUITY UPLC BEH C18 Column (1.7 µm, 2.1 mm × 50 mm, Waters); mobile phase A, 0.1% formic acid; mobile phase B, methanol with 0.1% formic acid, gradient (initial to 2.0 min, linear increase from 20 to 50% of B; 2.0 to 3.0 min, 95% B, and 3.0 to 4.0 min, 20% B); flow rate, 0.4 mL/min; column temperature, 40 °C. A Triple Quad 5500 (AB Sciex, Framingham, MA) mass spectrometer equipped with Analyst software (AB Sciex) and positive ion electrospray ionization in a multiple reaction monitoring (MRM) mode were used. Quantification was performed using MRM with the transitions of m/z at 422.0 → 377.1 for topotecan and 428.1 → 377.1 for topotecan-d6.
# (§3) Pharmacokinetic parameters, including half-life (T1/2), initial concentration at t = 0 (C0), the area under the concentration versus time curves from 0 to infinity (AUCinf), clearance (CL), mean residence time (MRT), and the volume of distribution (Vd) of total and unencapsulated topotecan in plasma, tumor tissue, and BM-ISF were analyzed using noncompartmental analysis with Phoenix WinNonlin version 8.2 pharmacokinetic software (Certara, Princeton, NJ). The AUCs were calculated using the linear up/log down rule.
# [2] = system: Ser139-phosphorylated human H2AX (γhH2AX) in the tumor; assay: DNA damage in tumor (γH2AX) of ES-2 tumor-bearing mice; assay type: in vivo; conditions: TPT 2 mg/kg/day for 5 consecutive days
# Description: Mice in the TPT group were euthanized at 3 and 24 h after each dosing and 3, 5, and 7 days after the last dosing (n = 3). Samples were also harvested at 0.5 h after the first and last TPT dose (n = 3). Mice in the vehicle control group were administered sucrose/histidine buffer intravenously and were euthanized at 3 h, 3, 7, and 11 days post-dosing (n = 2 or 3). The levels of Ser139-phosphorylated human H2AX (γhH2AX) and total hH2AX in the tumor, as well as Ser139-phosphorylated mouse H2AX (γmH2AX) and total mH2AX in mouse bone marrow, were quantified using a previously established method.
# [3] = Pharmacokinetics of total topotecan in plasma, tumor and BM-ISF of ES-2 tumor bearing mice; assay type: in vivo, BALB/c nude mice; conditions: single i.v. 2 mg/kg
# Description: as §1, §2, §3
# [4] = Maximum tolerated dose of TPT in mice; conditions: mouse, in vivo, intravenous, 5 consecutive days, authors' previous study (data not shown)
# [5] = unencapsulated topotecan, BM-ISF, single i.v. 2 mg/kg, ES-2 tumor bearing mice
# [6] = unencapsulated topotecan, plasma, single i.v. 2 mg/kg, ES-2 tumor bearing mice
# [7] = unencapsulated topotecan, tumor, single i.v. 2 mg/kg, ES-2 tumor bearing mice
# [8] = BALB/c nude, mouse, BM-ISF (bone marrow interstitial fluid), iv, BM-ISF, ES-2 tumor bearing mice
# [9] = BALB/c nude, mouse, iv, plasma, ES-2 tumor bearing mice
# [10] = BALB/c nude, mouse, iv, tumor, ES-2 tumor bearing mice
compound,measurement,setting,value
"CC[C@@]1(O)C(=O)OCc2c1cc1n(c2=O)Cc2cc3c(CN(C)C)c(O)ccc3nc2-1 [TPT, Topotecan]",AUC(0-inf),[1]; [5],0.822 µg·h/mL
same,Cmax,[1]; [5],1.7 µg/mL
same,MRT,[1]; [5],36.4 min
same,half-life,[1]; [5],43.7 min
same,AUC(0-inf),[1]; [6],0.0973 µg·h/mL
same,Cmax,[1]; [6],0.198 µg/mL
same,MRT,[1]; [6],34.6 min
same,half-life,[1]; [6],26.3 min
same,Cmax,[1]; [7],646 ng/g
same,MRT,[1]; [7],62.4 min
same,half-life,[1]; [7],58.3 min
same,difference between total and unencapsulated topotecan AUCs,[1]; in plasma and each tissue,≤ 1.5 fold
same,AUCinf ratio (Tumor/BM-ISF),"[1]; unencapsulated topotecan, single i.v. 2 mg/kg, ES-2 tumor bearing mice",0.833
same,AUCinf,[1]; [7],684 ng∙h/g tissue
same,human γH2AX levels in the tumor (DNA damage),[2]; FF-10850 single i.v. 2 mg/kg,comparable DNA damage
same,time γH2AX levels remained elevated in tumor after each dose,[2],at least 24 h
same,AUC(0-inf),[3]; [8],0.862 µg·h/mL
same,Cmax,[3]; [8],1.71 µg/mL
same,MRT,[3]; [8],39.5 min
same,half-life,"[3]; BALB/c nude, mouse, iv, BM-ISF (bone marrow interstitial fluid), ES-2 tumor bearing mice",41.4 min
same,AUC(0-inf),[3]; [9],0.14 µg·h/mL
same,C0,[3]; [9],0.406 µg/mL
same,MRT,[3]; [9],23.3 min
same,Vd,[3]; [9],5.87 L/kg
same,clearance,[3]; [9],14.3 L/h/kg
same,half-life,[3]; [9],23.9 min
same,Cmax,[3]; [10],546 ng/g
same,MRT,[3]; [10],61.2 min
same,half-life,[3]; [10],55.7 min
same,AUCinf in BM-ISF relative to that in plasma,[3],6 times
same,AUCinf ratio (Tumor/BM-ISF),[3]; ES-2 tumor bearing mice,0.675
same,AUCinf,"[3]; tumor, ES-2 tumor bearing mice",582 ng∙h/g tissue
same,MTD at 5 days,[4],2 mg/kg/day
